The source of these data is US20200093751A1, “CHEMOPROTECTIVE/CHEMOACTIVE NANODROPLETS AND METHODS OF USE THEREOF” (priority 2016, published 2020).

Data set [1] is described as follows: Toxicity / chemoprotective effect (body weight) in NCI-H460 tumor-bearing nude mice. In kind it is in vivo. As for the experimental part: When tumor volume reached approximately 50 mm^3, groups of tumor-bearing mice (n=5) were injected through the tail vein twice per week for a total of three weeks with a dose of 30 mg/kg per animal.
When tumor volume reached approximately 50 mm^3, groups of tumor-bearing mice (n=5) were injected through the tail vein twice per week for a total of three weeks with a dose of 30 mg/kg per animal of Tonp or once per week with a dose of 15 mg/kg per animal of TAXOTERE®.
The Tonp was injected one day before TAXOTERE® starting just before the second injection of TAXOTERE®.
Toxicity of the nanodroplet formulations was further assessed with respect to groups of mice with tumors. NCI-H460 human lung cancer cells were injected subcutaneously on the backs of nude mice to establish a tumor model. When tumor volume reached approximately 50 mm^3, mice were divided into treatment groups, which typically consisted of five mice. Mice were injected through the tail vein twice per week for three weeks with 30 mg/kg of Tonp or once per week with a dose of 15 mg/kg of TAXOTERE®.
One group of tumor-bearing mice was injected with TAXOTERE® through the tail vein once per week at a dose of 15 mg/kg per animal. […] Tonp, when used, was injected one day before TAXOTERE® starting just before the second injection of TAXOTERE®.

For data set [2], the system named is NCI-H460 human lung cancer model. As to the kind of experiment: Tumor growth inhibition in NCI-H460 human lung cancer model in nude mice. The following applies: TAXOTERE 15 mg/kg tail vein once per week, two injections; treatment ended on 13th day. The class given is in vivo. As for the experimental part: NCI-H460 cell suspensions were injected subcutaneously on the backs of mice to establish a tumor model. When tumor volume reached approximately 50 mm^3, groups of tumor-bearing mice (n=5) were injected through the tail vein once per week for a total of two weeks with a dose of 15 mg/kg per animal for TAXOTERE® or 30 mg/kg per animal twice per week for three weeks for Tonp nanodroplets. On the 20th day, the tumor growth inhibition of d-T3 (Tonp) treatment was 70%.
NCI-H460 cell suspensions were injected subcutaneously on the backs of mice to establish the tumor model. […] The Tonp was injected one day before TAXOTERE® starting just before the second injection of TAXOTERE®.
NCI-H460 human lung cancer cells were injected subcutaneously on the backs of nude mice to establish a tumor model. When tumor volume reached approximately 50 mm^3, mice were divided into treatment groups, which typically consisted of five mice.
In one experiment, tumor-bearing mice were either left untreated, were treated with TAXOTERE®, or were treated with Tonp nanodroplets. Mice were injected through the trail vein once per week with 15 mg/kg of TAXOTERE® or twice per week for three weeks with a dose of 30 mg/kg of Tonp.
One group of tumor-bearing mice was injected with TAXOTERE® through the tail vein once per week at a dose of 15 mg/kg per animal. […]

On to `CC(=O)O[C@@]12CO[C@@H]1C[C@H](O)[C@@]1(C)C(=O)[C@H](O)C3=C(C)[C@@H](OC(=O)[C@H](O)[C@@H](NC(=O)OC(C)(C)C)c4ccccc4)C[C@@](O)([C@@H](OC(=O)c4ccccc4)[C@H]21)C3(C)C` [TAXOTERE®, docetaxel], for which the “body weight after about two weeks of treatment” value in data set [1] (TAXOTERE 15 mg/kg once per week) is listed as “significantly decreased in body weight”. The “body weight after two injections of TAXOTERE” value in data set [1] (TAXOTERE 15 mg/kg once per week without Tonp, treatment ended on 13th day) is “severe body weight drop”. Moreover, the tumor growth inhibition in data set [2] is listed as 71%.
